Results as given in US6908904B2, “Pharmaceutical preparation and method for treatment of diabetes” (priority 2000, dated 2005).

How the values were obtained:
[1] = uptake of radiolabeled sulfatide analogues in liver after intraperitoneal injection; format: in vivo; details: 150 nmol i.p., ob/ob mice, FIG. 6A; for degradation or accumulation in liver, 6 h vs 24 h: 6 h and 24 h after i.p.; for uptake in liver: tritium-labeled, scintillation counting
From the text: (§1) Native sulfatide isolated from pig brain and structurally characterized by mass spectrometry was modified with regard to the fatty acid composition and tritiated in the sphingosine base. These analogues were administrated intraperitoneally to diabetic ob/ob mice and their uptake in liver and pancreas analyzed after lipid extraction of dissected organs. The aim was to explore whether the exogenously administrated sulfatide was taken up by pancreas and thereby open a possibility to substitute for the quantitative and qualitative alterations of sulfatide seen in the diabetes type 2 models.
(§2) Sulfatide was tritium labeled in the ceramide portion by catalytic hydrogenation with Pd(OAc)2/NaB^3H4. The labeled sulfatide was mixed with unlabelled sulfatide to the required specific activity.
(§3) The fatty acid was removed from native pig brain sulfatide by weak alkaline methanolysis at 80° C. The formed lysosulfatide was, after chromatographic purification, reacylated with respective fatty acid chloride in aqueous sodium acetate-tetrahydrofuran.
(§4) These mice were 12 weeks old and the mean value of the highest blood glucose was […]. At sacrifice the mice were anaesthetized with CO2 and killed by dislocation of the neck vertebrae. This is outlined in Table 2. The liver and pancreas were dissected immediately. The organ were quick-frozen and thawed at analyses (within 4 days).
(§5) The organs were homogenized and the lipids extracted with chloroform/methanol/water. The lipid extracts were evaporated, re-dissolved in chloroform/methanol/water and separated by silica gel chromatography to remove other lipids. The sulfatide containing fraction was used for counting by scintillation.
(§6) The results of the scintillation measurement are presented in FIG. 6A and FIG. 6B—FIG. 6A presenting liver data and FIG. 6B pancreas data—as cpm uptake in total, cpm/mg wet weight of tissue, cpm/mg of tissue protein and % of given cpm residing in the organ

[2] = uptake of radiolabeled sulfatide analogues in pancreas after intraperitoneal injection; format: in vivo; details: 150 nmol i.p., ob/ob mice, FIG. 6B; for degradation or accumulation in pancreas, 6 h vs 24 h: 6 h and 24 h after i.p.; for uptake in pancreas: tritium-labeled, scintillation counting
From the text: as §1, §2, §3, §4, §5, §6

insulin crystals = test: in vitro preservation of insulin crystals stored with sulfatide isoforms; details: compared to C24:0 analogue, native pig brain sulfatide and insulin stored without sulfatide, FIG. 5
From the text: The preservation of insulin crystals, a requirement for storage of an insulin pool that can be released upon raised blood glucose, is increased for sulfatide C16:0 compared to other sulfatide isoforms. […] This is illustrated in FIG. 5.

[3] = further uptake study of sulfatide analogues in pancreas (Example 3); format: in vivo; details: i.p., ob/ob mice; FIGS. 7-10
Protocol: These experiments were performed as in Example 3, but only the uptake in pancreas was studies.
ob/ob mice was thus given C12, C14, C16 och C18 analogues of sulfatide intraperitoneally in the way described above.
The results are illustrated in FIGS. 7-10.

[4] = test system: T-cell response to insulin; test: T-cell response to insulin; format: cell-based; details: sulfatide in combination with insulin
From the text: The fact that sulfatide is processed through the same intracellular route as insulin further supports the findings according to the invention. Sulfatide is involved in normal processing of insulin, from proinsulin to secreted monomeric insulin. It is involved in the folding and oxidation of proinsulin, and is thus required for insulin formation, it is involved in the preservation of insulin crystals in secretory granules, and is thus required for the storage of the insulin pool, prevents deterioration and fibril formation, and it is involved in the transformation of insulin from hexamer via dimer to monomer form at secretion, and this last conversion to monomer is required for biological activity. Furthermore, sulfatide might be needed in combination with insulin in order to affect the insulin receptors in a proper way and to avoid development of insulin resistance.

[5] = listed as C16:0 sulfatide analogue

Row | degradation or accumulation in liver, 6 h vs 24 h [1] | uptake in liver [1] | degradation or accumulation in pancreas, 6 h vs 24 h ([2]; listed as C8:0) | degradation or accumulation in pancreas, 6 h vs 24 h ([2]; listed as C 16) | degradation or accumulation in pancreas, 6 h vs 24 h [2, 5] | uptake in pancreas ([2]; listed as C16) | uptake in pancreas [2, 5] | uptake in pancreas (Example 3) [3] | degradation or accumulation in pancreas, 6 h vs 24 h ([2]; listed as C24) | Molecule | uptake in liver ([1]; listed as C8:0) | degradation or accumulation in pancreas, 6 h vs 24 h [2] | uptake in pancreas [2] | preservation of insulin crystals (insulin crystals) | preservation of insulin crystals (insulin crystals; listed as isoform of sulfatide with 16 carbon atoms in the fatty acid) | T-cell response to insulin [4]
1 | rapidly degraded | preferentially taken up in liver | no accumulation |  |  |  |  |  |  | CCCCCCCCCCCCC/C=C/[C@@H](O)[C@H](CO[C@@H]1O[C@H](CO)[C@H](O)[C@H](OS(=O)(=O)O)[C@H]1O)NC(=O)CCCCCCC [C8:0 analogue] | rapidly removed from circulation to the liver and degraded | neither accumulation or degradation was noticed | much lower than for the other two analogues |  |  | 
2 | slight accumulation | higher than for the C24:0 |  | accumulation | accumulation after 24 hours | efficiently taken up in pancreas | most efficiently taken up | most interesting results |  | CCCCCCCCCCCCC/C=C/[C@@H](O)[C@H](CO[C@@H]1O[C@H](CO)[C@H](O)[C@H](OS(=O)(=O)O)[C@H]1O)NC(=O)CCCCCCCCCCCCCCC [C16:0 analogue] |  |  |  | significant effect on the preservation | significant effect on the preservation of insulin crystals | 
3 |  |  |  |  |  |  |  |  |  | galactosylceramide-3-O-sulfate [sulfatide] |  |  |  |  |  | inhibited the T-cell response to insulin

Row | Molecule | degradation or accumulation in liver, 6 h vs 24 h [1] | uptake in liver [1] | degradation or accumulation in pancreas, 6 h vs 24 h ([2]; listed as C8:0) | degradation or accumulation in pancreas, 6 h vs 24 h ([2]; listed as C 16) | degradation or accumulation in pancreas, 6 h vs 24 h [2, 5] | uptake in pancreas ([2]; listed as C16) | uptake in pancreas [2, 5] | uptake in pancreas (Example 3) [3] | degradation or accumulation in pancreas, 6 h vs 24 h ([2]; listed as C24) | uptake in liver ([1]; listed as C8:0) | degradation or accumulation in pancreas, 6 h vs 24 h [2] | uptake in pancreas [2] | preservation of insulin crystals (insulin crystals) | preservation of insulin crystals (insulin crystals; listed as isoform of sulfatide with 16 carbon atoms in the fatty acid) | T-cell response to insulin [4]
4 | CCCCCCCCCCCCC/C=C/[C@@H](O)[C@H](CO[C@@H]1O[C@H](CO)[C@H](O)[C@H](OS(=O)(=O)O)[C@H]1O)NC(=O)CCCCCCCCCCCCCCCCCCCCCCC [C24:0 analogue] | slight reduction | lower uptake in liver as compared to the C8:0 analogue |  |  |  |  |  |  | slight degradation |  | slight reduction | efficiently taken up in pancreas |  |  | 
